In patent US7572778B2, “Fluorocombretastatin and derivatives thereof” (Sigma-Tau Industrie Farmaceutiche Riunite S.p.A., priority 2003, dated 2009):
Marks after values point to notes of the source that are not given here.

Key:
[1] = system: NCI-H460 human lung carcinoma; assay: Tumor growth evaluation, NCI-H460 s.c. xenograft; type: in vivo, CD-1 nude mice
Protocol: NCI-H460 human lung carcinoma from in vitro cell cultures were injected s.c. (3×10^6 cells/100 μl/mouse) into the right flank of CD-1 nude mice. Four days after tumor implant mice started to be treated with ST2493 at the dose of 50 mg/kg intraperitoneally according to the following schedule: qdx5/w/3wks. CA-4P (combretastatin A-4 P) at the same dose was used as positive control.
All animals were weighed during the whole treatment period, in order to adjust the volume of drug administration and to record the percent of body weight loss due in the course of treatment.
In a following experiment with the same animal model ST2493 (prodrug of ST2303) was administered intravenously at the doses of 25 and 50 mg/kg according to a q2dx6 schedule.
Tumor growth was assessed by twice a week measurements of the shortest (width) and the longest (length) diameters of each tumor by a Vernier caliper and the antitumor activity was evaluated in terms of percent inhibition of tumor growth. Tumor volume (or tumor weight*) was calculated according to the following formula using caliper measurements: tumor volume or TV (mm^3)=[length (mm)×width (mm)^2]/2.
Tumor volume inhibition percent (% TVI) was calculated according to the equation: 100−[(mean tumor volume of treated group/mean tumor volume of control group)×100]. A P value≦0.05 was considered statistically significant.

EA-hy 926 cell line = assay: Cytotoxicity assay (sulforhodamine B), EA-hy 926; type: cell-based; conditions: Homo sapiens, EAHY.926, 24 h exposure, then 48 h drug-free
Protocol: (§1) Primary cultures of bovine microvascular endothelial cells (BMEC) were obtained from bovine adrenal glands as described by Folkman (Folkman J., Haudenschild C. C., Zetter B. R. Long-term culture of capillary endothelial cells. Proc. Natl. Acad. Sci. USA, 1979 October; 76(10): 5217-21). BMEC were maintained in DMEM supplemented with 20% fetal calf serum (FCS), 50 units/ml heparin (Sigma, St. Louis, Mo.), 50 μg/ml bovine brain extract, 100 units/ml gentamycin. HUVEC (Human umbilical vein endothelial cells) were obtained from BioWhittaker (Walkersville, Md.) and grown in EGM-2 (BioWhittaker). EA-hy 926 cell line, a HUVEC-adenocarcinoma immortalized cell hybrid, was obtained from the Dipartimento di Scienze Biomediche e Oncologia Umana (Universita di Bari, Italy), and cultured in DMEM supplemented with 10% serum and 50 μg/ml gentamycin sulfate.
(§2) To test the effects of ST2303 on growth, cells were seeded in 96-well tissue culture plates (Corning) at approximately 10% confluence and were allowed to attach and recover for at least 24 h. Varying concentrations of the compound were then added to each well. […] The number of surviving cells was then determined by staining with sulforhodamine B as described by Skehan et al. (1990). ST2303 inhibitory concentration 50 (IC50)±SD on different cell lines, evaluated by “ALLFIT” computer program, are shown in Table 1.

[2] = system: HT-29 human colon adenocarcinoma cells; assay: Cytotoxicity assay (sulforhodamine B), HT-29; type: cell-based; conditions: HT29, 24 h exposure, then 48 h drug-free
Protocol: (§3) The following cell lines were purchased from ATCC and cultured according to manufacturer's instructions: NCIH460 human lung carcinoma, MeWo human melanoma, MES-SA human uterine sarcoma and HCT116 human colorectal carcinoma. HT-29 human colon adenocarcinoma cells and A2780 human ovarian carcinoma, obtained from Istituto Nazionale Tumori (Milan, Italy), were grown in RPMI 1640 (GIBCO) containing 10% fetal bovine serum (GIBCO) and 50 μg/ml gentamycin sulfate.
(§4) To test the effects of ST2303 on growth, cells were seeded in 96-well tissue culture plates (Corning) at approximately 10% confluence and were allowed to attach and recover for at least 24 h. Varying concentrations of the compound were then added to each well. The plates were incubated for 24 h and then washed before incubating them for additional 48 h. The number of surviving cells was then determined by staining with sulforhodamine B as described by Skehan et al. (1990). ST2303 inhibitory concentration 50 (IC50)±SD on different cell lines, evaluated by “ALLFIT” computer program, are shown in Table 1.

[3] = system: HCT116 human colorectal carcinoma; assay: Cytotoxicity assay (sulforhodamine B), HCT116; type: cell-based; conditions: HCT 116, 24 h exposure, then 48 h drug-free
Protocol: as §3, §4

MeWo human melanoma = assay: Cytotoxicity assay (sulforhodamine B), MeWo; type: cell-based; conditions: 24 h exposure, then 48 h drug-free
Protocol: as §3, §4

[4] = system: HUVEC (Human umbilical vein endothelial cells); assay: Cytotoxicity assay (sulforhodamine B), HUVEC; type: cell-based; conditions: 24 h exposure, then 48 h drug-free
Protocol: as §1, §2

tubulin = assay: Tubulin polymerisation inhibition test (CytoDINAMIX Screen, turbidity at 340 nm); type: biochemical; conditions: tubulin 3 mg/ml, 37° C.; mean of 3 independent determinations; read-out: IC50 ± SE, tubulin polymerisation
Protocol: The tubulin polymerisation test was performed by CytoDINAMIX Screen™. Turbidity from tubulin polimerisation was measured with a Victor2 from Wallac. HTS-tubulin was diluted to 3 mg/ml in buffer PEM [100 mM PIPES (pH 6.9), 1 mM EGTA and 1 mM MgCl2] containing 1 mM GTP (GPEM) plus 5% glycerol, and kept on ice. Aliquots of this solution was then placed at 37° C. in presence of taxol (3 μM) or colcemid (3 μM) or combretastatin (ST1986) or compounds to examinate, and absorbance was measured at 340 nm. The IC50 values were determined by non-linear regression analysis using “Prism GraphPad” software.
The value indicated in Table 3 is the mean of 3 independent determinations.

[5] = system: NCIH460 human lung carcinoma; assay: Cytotoxicity assay (sulforhodamine B), NCI-H460; type: cell-based; conditions: 24 h exposure, then 48 h drug-free
Protocol: as §3, §4

[6] = system: bovine microvascular endothelial cells (BMEC); assay: Cytotoxicity assay (sulforhodamine B), BMEC; type: cell-based; conditions: Bos taurus, Endothelial cell, 24 h exposure, then 48 h drug-free
Protocol: as §1, §2

[7] = system: MES-SA human uterine sarcoma; assay: Cytotoxicity assay (sulforhodamine B), MES-SA; type: cell-based; conditions: 24 h exposure, then 48 h drug-free
Protocol: as §3, §4

[8] = system: A2780 human ovarian carcinoma; assay: Cytotoxicity assay (sulforhodamine B), A2780; type: cell-based; conditions: 24 h exposure, then 48 h drug-free
Protocol: as §3, §4

[9] = i.p. 50 mg/kg, qdx5/w/3wks, day 11 after cell injection
[10] = i.p. 50 mg/kg, qdx5/w/3wks, day 28 after cell injection

Compound: COc1ccc(/C=C\c2cc(OC)c(OC)c(OC)c2)cc1OP(=O)(O)O [CA-4P, combretastatin A-4 P, reference compound]
- % BWL (body weight loss) ([1]; i.p. 50 mg/kg, qdx5/w/3wks): 3%
- mortality ([1]; i.p. 50 mg/kg, qdx5/w/3wks): 0/8
- % TVI (tumor volume inhibition) [1, 9]: 47** %
- % TVI (tumor volume inhibition) [1, 10]: 61*** %

Compound: COc1ccc(/C(F)=C(/F)c2cc(OC)c(OC)c(OC)c2)cc1OP(=O)([O-])[O-].[Na+].[Na+] [ST2493, (Z)-1,2-difluoro-1-(3,4,5-trimethoxyphenyl)-2-(3-hydroxy-4-methoxyphenyl)ethene o-disodium phosphate]
- TVI compared to vehicle (in words) ([1]; both intraperitoneal and intravenous administration): significant TVI
- % BWL (body weight loss) ([1]; i.p. 50 mg/kg, qdx5/w/3wks): 8%
- mortality ([1]; i.p. 50 mg/kg, qdx5/w/3wks): 0/8
- % TVI (tumor volume inhibition) [1, 9]: 68** %
- % TVI (tumor volume inhibition) [1, 10]: 73*** %
- % BWL (body weight loss) ([1]; i.v. 25 mg/kg, q2dx6): 8%
- mortality ([1]; i.v. 25 mg/kg, q2dx6): 0/8
- % TVI (tumor volume inhibition) ([1]; i.v. 25 mg/kg, q2dx6, day 11 after cell injection): 63** %
- % TVI (tumor volume inhibition) ([1]; i.v. 25 mg/kg, q2dx6, day 28 after cell injection): 64*** %
- % BWL (body weight loss) ([1]; i.v. 50 mg/kg, q2dx6): 8%
- mortality ([1]; i.v. 50 mg/kg, q2dx6): 0/8
- % TVI (tumor volume inhibition) ([1]; i.v. 50 mg/kg, q2dx6, day 11 after cell injection): 73** %
- % TVI (tumor volume inhibition) ([1]; i.v. 50 mg/kg, q2dx6, day 28 after cell injection): 73** %
- TVI compared with the same dose of CA-4P (in words) ([1]; intraperitoneal, 50 mg/kg, p=0.0095 at day 11, p=0.0180 at day 28, Mann Whitney's test): significant difference

Compound: COc1ccc(/C(F)=C(/F)c2cc(OC)c(OC)c(OC)c2)cc1O [ST2303, (Z)-1,2-difluoro-1-(3,4,5 trimethoxyphenyl)-2-(3-hydroxy-4-methoxyphenyl)ethene]
- IC50 (EA-hy 926 cell line): 5 ± 0.5 nM
- IC50 [2]: > 200 nM
- IC50 [3]: 2.2 ± 0.05 nM
- IC50 (MeWo human melanoma): 3.6 ± 0.0003 nM
- IC50 [4]: 1 ± 0.3 nM
- IC50 (tubulin): 7700 ± 120 nM
- IC50 [5]: 3 ± 0.005 nM
- IC50 [6]: 1 ± 0.5 nM
- IC50 [7]: < 1 nM
- IC50 [8]: 3 ± 0.001 nM
